Marks after values point to notes of the source that are not given here.
Experiments:
Phosphorylated Junser73 = assay: Anti-pJun immunofluorescence; format: in vivo, mouse
Description: (§1) Tissue-mounted slides were processed for fluorescence microscopy as follows: Sections were rinsed in coplin jars for 45 minutes at room temperature (RT) in three changes of PBS. Sections were then incubated at RT for 30 minutes in a blocking permeabilization solution made of 5% normal goat serum (NGS), 5% normal rabbit serum (NRS) or 5% BlokHen II (Ayes Labs, Inc., Tigard, Oreg.), 0.05% Triton X-100 and PBS. Subsequently, the blocking solution was tipped off and the slides were rinsed in PBS for 2 minutes. […]

[1] = test system: Ionized calcium-binding adaptor molecule-1 (microglia); assay: Anti-IBA-1 immunofluorescence, microglia counts; format: in vivo, mouse; conditions: SG-fed group over time (35 to 52 wk)
Description: as §1

With `CC[C@H](/C=C/[C@@H](C)[C@H]1CC[C@H]2[C@@H]3CC=C4C[C@@H](O[C@@H]5O[C@H](CO)[C@@H](O)[C@H](O)[C@H]5O)CC[C@]4(C)[C@H]3CC[C@]12C)C(C)C` [SG, Stigmasterol β-D-Glucopyranoside] the “Anti-pJun immunoreactive cells over time” value (Phosphorylated Junser73; SG-fed group over time (35 to 52 wk)) was “Anti-pJun immunoreactive cells (SG-fed group over time) (ns)”, the “Anti-pJun, change” value (Phosphorylated Junser73; SG-fed vs control, Time-point 1 (35 wk)) was “Anti-pJun: +199%*” and the Anti-pJun (Phosphorylated Junser73; SG-fed vs control, Time-point 2 (52 wk)) was “Anti-pJun (ns)”. For the same compound, the “Anti-IBA-1 immunoreactive cells over time” value [1] was “Anti-IBA-1 immunoreactive cells (SG-fed group over time) (ns)”.
